Results published in ChEMBL document CHEMBL3862024, “2-Phenylbenzo[b]furans: Synthesis and promoting activity on estrogen biosynthesis” (Bioorg Med Chem Lett, 2016).
pEC50: −log10 of the molar value.

How the values were obtained:
[1] = Cytotoxicity against aromatase overexpressing HEK293A cells assessed as effect on cell proliferation at 10 to 50 uM; format: toxicity, cell-based; conditions: human, hek293-a
[2] = Induction of estrogen biosynthesis in aromatase overexpressing HEK293A cells assessed as increase in 17beta-estradiol levels at 50 uM preincubated for 24 hrs followed by testosterone addition measured after 24 hrs by magnetic particle-based ELISA relative to egonol gentiobioside; format: functional, Homo sapiens, HEK293-A
[3] = Induction of estrogen biosynthesis in aromatase overexpressing HEK293A cells assessed as increase in 17beta-estradiol levels preincubated for 24 hrs followed by testosterone addition measured after 24 hrs by magnetic particle-based ELISA; format: functional, cell-based; conditions: Homo sapiens, HEK293-A

SMILES	Activity [1]	fold change (FC) [2]	pEC50 [3]
COc1cccc(-c2cc3cc(Br)cc(OC)c3o2)c1	Non-Toxic	>0.6	
CCCC(=O)OCCCc1cc(OC)c2oc(-c3ccc4c(c3)OCO4)cc2c1 [EGONOLBUTANOATE]	Non-Toxic		
COc1ccc(-c2cc3cc(Cl)ccc3o2)cc1	Non-Toxic		
Clc1cc(Cl)c2oc(-c3ccccc3)cc2c1	Non-Toxic		
Clc1ccc2oc(-c3ccc(OCc4ccccc4)cc3)cc2c1	Non-Toxic	>0.6	4.76
COc1cc(Br)cc2cc(-c3ccc4c(c3)OCO4)oc12	Non-Toxic		
C=CC(=O)OCCCc1cc(OC)c2oc(-c3ccc4c(c3)OCO4)cc2c1	Non-Toxic		
COc1ccc(-c2cc3cccc(OC)c3o2)cc1OC	Non-Toxic		
Fc1ccc(-c2cc3ccccc3o2)cc1	Non-Toxic	>0.6	4.60
COc1cccc(-c2cc3cccc(OC)c3o2)c1	Non-Toxic		
c1ccc(-c2cc3ccccc3o2)cc1	Non-Toxic	>0.6	4.81
COc1cc(CCCOC(=O)c2ccccc2)cc2cc(-c3ccc4c(c3)OCO4)oc12	Non-Toxic	>0.6	
COc1ccc(-c2cc3cc(Cl)cc(Cl)c3o2)cc1OC	Non-Toxic		
COc1ccccc1-c1cc2cc(Cl)ccc2o1	Non-Toxic		
COc1cc(CCCO)cc2cc(-c3ccc4c(c3)OCO4)oc12 [EGONOL]	Non-Toxic		
COc1cc(CCCCl)cc2cc(-c3ccc4c(c3)OCO4)oc12	Non-Toxic	>0.6	
COc1ccc(-c2cc3ccccc3o2)cc1OC	Non-Toxic		
COc1ccc(-c2cc3cc(Br)cc(OC)c3o2)cc1	Non-Toxic	>0.6	4.68
COc1ccccc1-c1cc2cc(Cl)cc(Cl)c2o1	Non-Toxic		
COc1cccc2cc(-c3ccccc3)oc12	Non-Toxic		
COc1cccc2cc(-c3ccc4c(c3)OCO4)oc12	Non-Toxic	>0.6	
Clc1ccc(-c2cc3cc(Cl)ccc3o2)cc1	Non-Toxic		
COc1cc(CCCOC(C)=O)cc2c(C=O)c(-c3ccc4c(c3)OCO4)oc12	Non-Toxic		
COc1cc(Cl)cc2cc(-c3ccc(F)cc3)oc12	Non-Toxic	>0.6	4.70
O=[N+]([O-])c1ccc(-c2cc3cc(Cl)ccc3o2)cc1	Non-Toxic		
COc1c(Br)c(CCCO)c(Br)c2c(Br)c(-c3ccc4c(c3)OCO4)oc12	Non-Toxic		
COc1cc(SC)cc2cc(-c3ccc(F)cc3)oc12	Non-Toxic		
COc1cc(CCCI)cc2cc(-c3ccc4c(c3)OCO4)oc12	Non-Toxic		

SMILES	Activity [1]	fold change (FC) [2]	pEC50 [3]
COc1ccc(-c2cc3cc(Cl)ccc3o2)cc1OC	Non-Toxic		
COc1cc(CCCO)c(Br)c2c(Br)c(-c3ccc4c(c3)OCO4)oc12	Non-Toxic		
COc1cc(-c2cc3cc(Br)cc(OC)c3o2)ccc1O	Non-Toxic		
COc1cccc2cc(-c3ccc(F)cc3)oc12	Non-Toxic		
COc1cc(CCCO)c(Br)c2cc(-c3ccc4c(c3)OCO4)oc12	Non-Toxic	>0.6	4.66
COc1cc(CCCOC(C)=O)c(C=O)c2cc(-c3ccc4c(c3)OCO4)oc12	Non-Toxic		
COc1ccc(-c2cc3cc(Br)cc(OC)c3o2)cc1OC	Non-Toxic		
COc1cc(Cl)cc2cc(-c3ccccc3)oc12	Non-Toxic		
COc1cc(SC)cc2cc(-c3ccc(Cl)cc3)oc12	Non-Toxic		
COc1cc(CCCO[C@@H]2O[C@H](CO[C@@H]3O[C@H](CO)[C@@H](O)[C@H](O)[C@H]3O)[C@@H](O)[C@H](O)[C@H]2O)cc2cc(-c3ccc4c(c3)OCO4)oc12			4.80
COc1ccc(-c2cc3cc(Br)cc(OC)c3o2)cc1O	Non-Toxic	>0.6	4.59
c1ccc2oc(-c3ccc4c(c3)OCO4)cc2c1	Non-Toxic		
COc1ccc(-c2cc3cc(Cl)cc(Cl)c3o2)cc1	Non-Toxic		
O=[N+]([O-])c1ccc(-c2cc3cc(Cl)cc(Cl)c3o2)cc1	Non-Toxic		
COc1cccc2cc(-c3ccc(Cl)cc3)oc12	Non-Toxic	>0.6	4.83
COc1ccc(-c2cc3cccc(OC)c3o2)cc1	Non-Toxic		
COc1cc(CCC=O)cc2cc(-c3ccc4c(c3)OCO4)oc12	Non-Toxic		
COc1cccc2cc(-c3ccc([N+](=O)[O-])cc3)oc12	Non-Toxic		
COc1cc(-c2cc3cc(Cl)ccc3o2)cc(OC)c1OC	Non-Toxic	>0.6	4.53
COc1ccc(-c2cc3ccccc3o2)cc1	Non-Toxic		
COc1ccc(OC)c(-c2cc3cc(SC)cc(OC)c3o2)c1	Non-Toxic	>0.6	4.71
COc1cc(CCCOC(C)=O)cc2cc(-c3ccc4c(c3)OCO4)oc12 [EGONOL ACETATE]	Non-Toxic		
COc1cc(Br)cc2cc(-c3ccc([N+](=O)[O-])cc3)oc12	Non-Toxic	>0.6	4.51
COc1cc(Cl)cc2cc(-c3ccc(Cl)cc3)oc12	Non-Toxic		
COc1cccc(-c2cc3ccccc3o2)c1	Non-Toxic	>0.6	4.68
COc1cccc(-c2cc3cc(Cl)cc(Cl)c3o2)c1	Non-Toxic	>0.6	4.71
COc1cc(CCCBr)cc2cc(-c3ccc4c(c3)OCO4)oc12	Non-Toxic		
